This experiment has as its system IGF1R Sal tumor cell line. The experiment is described as follows: Cytotoxicity assay: inhibition of cell proliferation by [3H]-thymidine incorporation. Type of experiment: cell-based. As to conditions: IGF-1R-Sal, IGF1R Sal (CD8-IGF1R) cell line from transgenic mouse xenograft tumor, 72 h exposure, read-out: Cytotoxicity Assay IC50 (nM) against IGF1R Sal tumor cell line. Here is the method: The proliferative activity of two IGF1R inhibitors in cells was evaluated in vitro against a cell line derived from a xenograft tumor generated in a transgenic mouse, IGF1R Sal (CD8-IGF1R), which was engineered to overexpress the catalytic domain of the human IGF1R. The two IGF1R inhibitors evaluated were a benzimidazole compound as described in WO02/079192 and U.S. application Ser. No. 10/263,448, hereby incorporated by reference, and paclitaxel. Inhibition of cellular proliferation was also determined in a variety of human tumor xenograft cell lines including, Colo205 (colon), Geo (colon), RD1 (rhabdomyosarcoma), H3396 (breast), and MDA PCa2b (prostate). Proliferation was evaluated by incorporation of [^3H]-thymidine into DNA after a 72 hour exposure to reagents. Cells were plated at 1,500 cells/well in 96-well microtiter plates and 24 hours later cells were exposed to a range of drug concentrations. After 72 hours incubation at 37° C., cells were pulsed with 4 μCi/ml [6-^3H] thymidine (Amersham Pharmacia Biotech, UK) for 3 hours, trypsinized, harvested onto UniFilter-96, GF/B plates (PerkinElmer, Boston, Mass.), and scintillation was measured on a TopCount.NXT (Packard, Conn.). Results are expressed as an IC50, which is the drug concentration required to inhibit cell proliferation by 50% to that of untreated control cells.

From patent US7265260B2, “Transgenic non-human mammals expressing constitutively activated tyrosine kinase receptors” (Bristol-Myers Squibb Company, priority 2002, dated 2007) come the findings set out here.

Usually IC50 stands for the concentration at which inhibition is half-maximal.

Consider `CC(=O)O[C@H]1C(=O)[C@@]2(C)[C@H]([C@H](OC(=O)c3ccccc3)[C@]3(O)C[C@H](OC(=O)[C@H](O)[C@@H](NC(=O)c4ccccc4)c4ccccc4)C(C)=C1C3(C)C)[C@]1(OC(C)=O)CO[C@@H]1C[C@@H]2O` [paclitaxel], for which the IC50 worked out at 2.9 nM.
